Results from patent US20260373266A1, “PROTEIN DEGRADERS AND USES THEREOF” (KYMERA THERAPEUTICS, INC., priority 2022, published 2026).

Target: T1, DCAF1 WD40 domain (residues 1077-1390) (Homo sapiens, UniProt Q9Y4B6)
T1 construct: DCAF1 WD40 domain (residues 1077-1390)
Assay: DCAF1 binding assay by SPR (Biacore 8K+), DCAF1-3 KD
Conditions: 25 °C, read-out: DCAF1-3 SPR (KD)

T1 sequence (Q9Y4B6 1077-1390): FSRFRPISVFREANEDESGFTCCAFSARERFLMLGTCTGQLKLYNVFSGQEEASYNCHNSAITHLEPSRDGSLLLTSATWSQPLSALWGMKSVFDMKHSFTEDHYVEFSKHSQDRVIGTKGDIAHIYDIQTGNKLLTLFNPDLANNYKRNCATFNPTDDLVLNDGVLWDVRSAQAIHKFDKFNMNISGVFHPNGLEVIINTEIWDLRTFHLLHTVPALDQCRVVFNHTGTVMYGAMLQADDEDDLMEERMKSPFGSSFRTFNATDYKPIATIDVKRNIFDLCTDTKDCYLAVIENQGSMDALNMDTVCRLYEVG

| SMILES | Kd [µM] |
| --- | --- |
| Cc1c(F)ccc(F)c1-c1[nH]ncc1C(=O)N[C@@H](CC(=O)N1CCOCC1)c1cccc(Cl)c1 [I-842] | < 10 |
| Fc1cccc(N2CCC[C@@H](Nc3cc(N4CCOCC4)ccn3)C23COC3)c1 [I-280] | > 200 |
| COc1ccccc1N1CCC[C@@H](Nc2cc(N3CCOCC3)ncn2)C1 [I-15] | > 200 |
| Fc1cccc(N2CCC[C@@H](Nc3nccc(N4CCOCC4)n3)C2)c1 [I-370] | > 200 |
| C#Cc1cccc(F)c1-c1[nH]ncc1C(=O)N[C@@H](CC(N)=O)c1cccc(Cl)c1 [I-591] | < 10 |
| N#Cc1cccc([C@H](CC(N)=O)NC(=O)c2c[nH]nc2-c2ccccc2F)c1 [I-117] | 10 to 100 |
| CC(=O)N(c1cc(N2CCOCC2)ccn1)[C@@H]1CCCN(c2cccc(F)c2)C1 [I-271] | > 200 |
| CN(c1cc(N2CCOCC2)ncn1)[C@@H]1CCCN(c2cccc(F)c2)C1 [I-385] | > 200 |
| Nc1ccc(F)cc1N1CCC[C@@H](Nc2cc(N3CCOCC3)ccn2)C1 [I-682] | < 10 |
| Cc1cc(Cl)cc(C)c1-c1c(C(=O)N[C@@H](CC(N)=O)c2cccc(Cl)c2)c[nH]c1C(=O)c1ccccc1 [I-969] | < 10 |
| c1ccc2c(N3CCC[C@@H](Nc4nccc(N5CCOCC5)n4)C3)cccc2c1 [I-52] | > 200 |
| N#Cc1ccc(-c2[nH]ncc2C(=O)N[C@@H](CC(N)=O)c2cccc(Cl)c2)cc1 [I-128] | 10 to 100 |
| c1cc(N2CCOCC2)cc(N[C@@H]2CCCN(c3nccc(N4CCCC4)n3)C2)n1 [I-678] | 10 to 100 |
| NS(=O)(=O)[C@@H]1[C@H](Nc2cc(N3CCOCC3)ccn2)CCCN1c1cccc(F)c1 [I-283] | > 200 |
| Cc1c(F)ccc(F)c1-c1[nH]ncc1C(=O)N[C@@H](CC(=O)N1CCC(O)C1)c1cccc(Cl)c1 (stereo partly drawn) [I-883] | < 10 |
| COc1cc(N[C@@H]2CCCN(c3cccc(F)c3)C2)cc(N2CCOCC2)c1 [I-547] | > 200 |
| NC(=O)C[C@H](NC(=O)c1cn(CC2CC2)nc1-c1ccccc1F)c1cccc(Cl)c1 [I-137] | 10 to 100 |
| CC(C)c1cccc(-c2[nH]ncc2C(=O)N[C@@H](CC(N)=O)c2cccc(Cl)c2)c1F [I-563] | 10 to 100 |
| c1ccc2c(N3CCC[C@@H](Nc4cc(N5CCOCC5)ccn4)C3)n[nH]c2c1 [I-111] | > 200 |
| CNC1CN(C(=O)C[C@H](NC(=O)c2cn[nH]c2-c2c(F)ccc(F)c2C)c2cccc(Cl)c2)C1 [I-880] | < 10 |
| C[C@H]1CCCCN1c1ccnc(N[C@@H]2CCCN(c3cccc(F)c3)C2)c1 [I-569] | < 10 |

| SMILES | Kd [µM] |
| --- | --- |
| C=CC(=O)N(C)CCN(C)c1ccnc(N[C@@H]2CCCN(c3cccc(F)c3)C2)c1 [I-448] | > 200 |
| Cc1ncc(N[C@@H]2CCCN(c3cccc(F)c3)C2)cc1N1CCOCC1 [I-545] | > 200 |
| c1cncc(-c2ccnc(N3CCC[C@@H](Nc4cc(N5CCOCC5)ccn4)C3)n2)c1 [I-416] | 10 to 100 |
| C=CC(=O)Nc1n[nH]cc1C(=O)N[C@@H](CC(N)=O)c1cccc(Cl)c1 [I-308] | > 200 |
| CS(=O)(=O)CCN(c1cc(N2CCOCC2)ccn1)[C@@H]1CCCN(c2cccc(F)c2)C1 [I-292] | > 200 |
| Cc1ccccc1-c1[nH]ncc1C(=O)N[C@@H](CC(N)=O)c1cccc(Cl)c1 [I-104] | < 10 |
| NC(=O)CCc1cccc(N2CCC[C@@H](Nc3cc(N4CCOCC4)ccn3)C2)c1 [I-777] | 10 to 100 |
| c1cnc2c(N3CCC[C@@H](Nc4nccc(N5CCOCC5)n4)C3)cccc2c1 [I-30] | 100 to 200 |
| COc1ccc(-c2[nH]ncc2C(=O)NC(C)C(=O)Nc2ccccc2)cc1 (stereo not drawn) [I-838] | > 200 |
| Fc1cccc(N2CCC[C@@H](N(c3ccccc3)c3cc(N4CCOCC4)ccn3)C2)c1 [I-273] | > 200 |
| Cc1cccc(F)c1-c1c(C(=O)N[C@@H](CC(N)=O)c2cccc(Cl)c2)c[nH]c1C(=O)C1CCCCC1 [I-606] | < 10 |
| NC(=O)C[C@H](NC(=O)c1c[nH]nc1-c1c(F)cccc1F)c1cccc(Cl)c1 [I-150] | < 10 |
| Cc1c(F)ccc(F)c1-c1[nH]ncc1C(=O)N[C@@H](CC(=O)N1CCNCC1)c1cccc(Cl)c1 [I-885] | < 10 |
| NC(=O)C[C@H](NC(=O)C1=C(c2c(F)cccc2F)CNC1)c1cccc(Cl)c1 [I-586] | < 10 |
| O=C1C(Nc2cc(N3CCOCC3)ccn2)CCCN1c1cccc(F)c1 (stereo not drawn) [I-502] | > 200 |
| Fc1cccc(N2CCC[C@@H]3[C@H]2CCCN3c2cc(N3CCCCC3)ccn2)c1 [I-703] | > 200 |
| NC(=O)C[C@H](NC(=O)c1ccc(C#Cc2ccccc2)cc1)c1cccc(Cl)c1 [I-438] | > 200 |
| Fc1cccc(N2CCC[C@@H](N3CCc4c(N5CCOCC5)ccnc43)C2)c1 [I-196] | < 10 |
| O[C@H]1CCCN(c2ccnc(N3CC[C@@H]4[C@H]3CCCN4c3cccc(F)c3)c2)C1 [I-800] | < 10 |
| NC(=O)CCc1cccc(N2CCC[C@@H]3[C@H]2CCN3c2cc(N3CCCCC3)ccn2)c1 [I-879] | 10 to 100 |
| Oc1ccc(N2CCC[C@@H](Nc3cc(N4CCCCC4)ccn3)C2)cc1F [I-716] | 10 to 100 |

| SMILES | Kd [µM] |
| --- | --- |
| Fc1cccc(N2CCC[C@@H](Nc3cc(C4CCOCC4)[nH]n3)C2)c1 [I-608] | > 200 |
| NC(=O)C[C@H](NC(=O)c1c[nH]nc1-c1c(F)cccc1F)c1cccc(Cl)c1 [I-207] | > 200 |
| c1cc(N2CCOCC2)cc(N[C@@H]2CCCN(c3ccc4c(N5CCNCC5)ccnc4c3)C2)n1 [I-858] | 10 to 100 |
| NC(=O)C[C@H](NC(=O)c1[nH]nc(Nc2ccccc2)c1-c1ccccc1F)c1cccc(Cl)c1 [I-169] | 10 to 100 |
| O=C1C[C@H]([C@@H](NC(=O)c2cn[nH]c2-c2ccccc2F)c2cccc(Cl)c2)CN1 [I-559] | 100 to 200 |
| C=CC(=O)N1CCN(c2ccnc(N[C@@H]3CCCN(c4cccc(F)c4)C3)c2)CC1C(F)(F)F (stereo partly drawn) [I-655] | > 200 |
| NC(=O)C[C@H](NC(=O)c1cn[nH]c1[C@H]1CCCCO1)c1cccc(Cl)c1 [I-348] | > 200 |
| OCCC[C@H]1C[C@H]2[C@@H](CCCN2c2cccc(F)c2)N1c1cc(N2CCCCC2)ccn1 [I-834] | 10 to 100 |
| Cc1c(F)ccc(F)c1-c1c(C(=O)N[C@@H](CC(N)=O)c2cccc(Cl)c2)c[nH]c1C(=O)COCCOCCOCCOCCOCCOCCN [I-802] | < 10 |
| NC(=O)C[C@H](NC(=O)c1cn[nH]c1C1CCOCC1)c1ccccc1 [I-501] | 10 to 100 |
| Fc1cccc(N[C@@H]2CCCN(c3cc(N4CCCCC4)ccn3)C2)c1 [I-645] | > 200 |
| N#Cc1cc2c(nc1N1CCC[C@@H](Nc3cc(N4CCOCC4)ccn3)C1)CCC2 [I-427] | > 200 |
| O=C(O)[C@@H]1[C@H](Nc2cc(N3CCOCC3)ccn2)CCCN1c1cccc(F)c1 [I-287] | > 200 |
| CNC(=O)C[C@H](NC(=O)c1c[nH]c(C(=O)COCCOCCOCCOCCOCCN)c1-c1c(F)ccc(F)c1C)c1cccc(Cl)c1 [I-820] | < 10 |
| Cc1sc2c(c1C)C(c1ccc(Cl)cc1)=N[C@@H](CC(=O)NCCOCCOCCOCCOCCOCCOCCC1CCN(c3ccnc(N4CC[C@@H]5[C@H]4CCCN5c4cccc(F)c4)c3)CC1)c1nnc(C)n1-2 [I-895] | 10 to 100 |
| Cc1c(F)ccc(F)c1-c1c(C(=O)N[C@@H](CC(N)=O)c2cccc(Cl)c2)c[nH]c1C(=O)c1cccc(C(C)C)c1 [I-739] | < 10 |
| NC(=O)C[C@H](NC(=O)c1c[nH]c(C(=O)c2ccccc2)c1-c1c(F)cc(Cl)cc1F)c1cccc(Cl)c1 [I-946] | < 10 |
| Fc1cccc(N2CCCC(Nc3nccc(N4CCCCC4)n3)C2)c1 (stereo not drawn) [I-27] | 100 to 200 |
| c1cc(N2CCOCC2)cc(N[C@@H]2CCCN(c3ccc(CN4CCOCC4)cn3)C2)n1 [I-786] | 10 to 100 |
| Fc1cccc(N2CCC[C@@H](Nc3cc([C@H]4CCCNC4)ccn3)C2)c1 [I-110] | 10 to 100 |
| c1ccc(N2CCC[C@@H](Nc3cc(N4CCOCC4)ncn3)C2)nc1 [I-11] | > 200 |

| SMILES | Kd [µM] |
| --- | --- |
| Fc1cccc(N2CCCC(Nc3cc(N4CCOCC4)ccn3)C23CC(F)(F)C3)c1 (stereo not drawn) [I-296] | > 200 |
| OC[C@H]1CC[C@H](Nc2cc(N3CCCCC3)ccn2)CC1 [I-847] | > 200 |
| NC(=O)C[C@H](NC(=O)c1c[nH]cc1-c1ccccc1F)c1cccc(Cl)c1 [I-90] | < 10 |
| Cc1c(F)ccc(F)c1-c1c(C(=O)N[C@@H](CC(=O)N2CC[C@@H](O)C2)c2cccc(Cl)c2)cn(C)c1C#N [I-1005] | < 10 |
| Fc1cccc(N2CCC3CCCc4ncc(N5CCOCC5)cc4NC3C2)c1 (stereo not drawn) [I-228] | > 200 |
| C=CC(=O)N1CCCC(N(C)c2ccnc(N[C@@H]3CCCN(c4cccc(F)c4)C3)c2)C1 (stereo partly drawn) [I-459] | > 200 |
| CCCN(c1nccc(N2CCOCC2)n1)[C@@H]1CCCN(c2cccc(F)c2)C1 [I-44] | > 200 |
| NC(=O)CCc1cc(N2CCC[C@H]3[C@@H]2CCN3c2cc(N3CCCCC3)ccn2)ccc1F [I-874] | < 10 |
| Cc1[nH]cc(C(=O)N[C@@H](CC(N)=O)c2cccc(Cl)c2)c1-c1c(F)cccc1F [I-585] | < 10 |
| Cc1cccc(F)c1-c1c(C(=O)N[C@@H](CC(N)=O)c2cccc(Cl)c2)c[nH]c1C(=O)Cc1ccccc1 [I-622] | < 10 |
| Cc1cccc(N2CCC[C@H]3[C@@H]2CCN3c2cc(N3CC4CC(C4)C3)ccn2)c1 [I-711] | 10 to 100 |
| Cn1cnc(C[C@H](O)C(=O)N[C@@H](CC(N)=O)c2cccc(Cl)c2)c1 [I-443] | > 200 |
| CCc1cccc([C@H](CC(N)=O)NC(=O)c2cn[nH]c2-c2ccccc2F)c1 [I-638] | > 200 |
| C=CC(=O)NCCC1CCCN(c2ccnc(N[C@@H]3CCCN(c4cccc(F)c4)C3)c2)C1 (stereo partly drawn) [I-664] | 10 to 100 |
| Fc1cccc(N2CCC[C@@H](N(CC3CC3)c3nccc(N4CCOCC4)n3)C2)c1 [I-41] | 100 to 200 |
| c1cc(N2CCOCC2)cc(N[C@@H]2CCCN(c3ccnc(OC4CC4)c3)C2)n1 [I-687] | 10 to 100 |
| O=C(Nc1ccccc1)NC1CCCN(C(=O)N2CCC=C(F)C2)C1 (stereo not drawn) [I-85] | > 200 |
| NC(=O)C[C@H](NC(=O)c1[nH]nc(Nc2ccncn2)c1-c1ccccc1F)c1cccc(Cl)c1 [I-168] | > 200 |
| Fc1cccc(N2CCC[C@H](Nc3nccc(N4CCOCC4)n3)C2)c1 [I-119] | 100 to 200 |
| N#Cc1cccc(N2CCC[C@@H](Nc3cc(N4CCOCC4)ccn3)C2)c1 [I-771] | > 200 |
| CN(CCN)C(=O)C[C@H](NC(=O)c1cn[nH]c1-c1ccccc1F)c1cccc(Cl)c1 [I-807] | < 10 |
